From patent publication US5252749A, “Ethers of thienocyclopentanone oximes, their preparation and pharmaceutical compositions containing them” (Elf Sanofi, priority 1991, dated 1993)

Key:
5HT3 receptors = conditions: rats, Bezold-Jarisch reflex; compounds studied in J. Pharm. Pharmacol. 40, 301-302 (1988); cited from earlier work
5HT1D receptors = target: T1, 5HT1D receptors (Bos taurus, UniProt F1MGM3); test: Displacement of tritiated serotonin from 5HT1D receptors on membrane preparations of bovine caudate nuclei; conditions: bovine caudate nuclei membranes, in vitro, read-out: concentration which inhibits 50% of the binding of the tritiated compound (IC50)
T1 construct: membrane preparations of bovine caudate nuclei; from tissue; host or cells: bovine caudate nuclei, membrane preparation
T1 sequence (F1MGM3 1-403): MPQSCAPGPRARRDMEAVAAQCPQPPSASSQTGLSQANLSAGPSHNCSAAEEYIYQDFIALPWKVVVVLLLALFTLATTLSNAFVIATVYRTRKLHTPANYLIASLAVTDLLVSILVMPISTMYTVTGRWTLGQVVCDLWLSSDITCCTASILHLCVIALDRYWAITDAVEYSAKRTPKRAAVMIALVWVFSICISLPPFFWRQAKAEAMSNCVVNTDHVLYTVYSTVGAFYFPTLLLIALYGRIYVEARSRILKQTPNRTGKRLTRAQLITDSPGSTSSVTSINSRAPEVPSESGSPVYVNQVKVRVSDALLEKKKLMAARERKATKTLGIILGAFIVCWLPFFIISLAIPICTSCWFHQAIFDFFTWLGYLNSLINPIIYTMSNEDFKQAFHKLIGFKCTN

5HT1D receptor = conditions: Headache 29, 420-422, July 1989; cited from earlier work
5HT1A receptor = conditions: Headache 29, 420-422, July 1989; cited from earlier work
[1] = in man; cited from earlier work

## COc1cc(N)c(Cl)cc1C(=O)NC1CN2CCC1CC2 (stereo not shown) [zacopride]
5HT3 receptors
  dose which inhibits 50% of the serotonin activity (ID50): ~0.00025 mg/kg

## CN1[C@@H]2CC[C@H]1CC(OC(=O)c1c[nH]c3ccccc13)C2 (stereo partly shown) [ICS 205-930]
5HT3 receptors
  dose which inhibits 50% of the serotonin activity (ID50): approximately 1 μg/kg

## CNS(=O)(=O)Cc1ccc2[nH]cc(CCN(C)C)c2c1 [sumatriptan]
5HT1D receptors
  IC50: ~100 nM
5HT1D receptor
  agonist activity at the 5HT1D receptor: powerful agonist of the 5HT1D receptor
5HT1A receptor
  agonist activity at the 5HT1A receptor: weak agonist of the 5HT1A receptor
[1]
  antimigraine activity: marked antimigraine activity in man

## CCN(CC)CCNC(=O)c1cc(Cl)c(N)cc1OC [metoclopramide]
5HT3 receptors
  dose which inhibits 50% of the serotonin activity (ID50): ~0.4 mg/kg
